The results in this text go back to patent publication US7265152B2 (ViroPharma Incorporated, priority 2002, dated 2007).

The structures appear in SMILES notation. Like-named read-outs stand apart in the source and are kept apart here.

Assay [1] relates to HCV replicon (BB7 sequence) in Huh-7-Clone A cells. Nature of the assay: HCV replicon assay: ELISA of NS5A protein in replicon-containing cells (Inhibition of Viral RNA Replication). The following applies: read-out: Replicon. The format is cell-based. The method in brief: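 Huh-7-Clone A cells carrying subgenomic BB7 HCV replicon (G418-selectable) incubated 72 h with compound. NS5A protein quantified by cell ELISA: glutaraldehyde fixation, anti-NS5A monoclonal plus HRP secondary, TMB read at OD 650 nm. EC50 derived from 8-point serial dilution dose curve.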
In general terms: A replicon is a self-replicating genome or part of one, used to study replication in cells.

The target of a further assay is T1, HCV NS5B (Hepatitis C virus genotype 1b, UniProt Q9WMX2).
T1 construct: fusion protein, of which the carboxyl terminal 21 amino acids were removed to enhance its solubility; His tag (GSHHHHHH); made in house; host or cells: E. coli
Nature of the assay: Inhibition of viral RNA-dependent RNA polymerase (RdRp), in vitro biochemical assay. Also on record: species or system HCV genotype 1b virus (BB7). The note with it: HCV NS5B RdRp, read-out: HCV pol-BB7 IC50. In outline:
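Purified recombinant NS5B from a genotype 1b consensus (BB7), His-tagged, E. coli-expressed, with the C-terminal 21 residues deleted. Inhibition of RdRp activity in vitro was measured, and IC50 is the concentration giving 50% inhibition.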

Where [2] appears, read: Hepatitis C virus, ranges of EC50 in HCV replicon assay.
Where [3] appears, read: Hepatitis C virus, HCV replicon, range of EC50.

Regarding `CCOc1cc2c(C(=O)NC)c(-c3ccc(F)cc3)oc2cc1N1CCOCC1` [Example 166, 5-Ethoxy-2-(4-fluoro-phenyl)-6-morpholin-4-yl-benzofuran-3-carboxylic acid methylamide], the EC50 in assay [1] (setting [2]) is below 10000 nM. In addition, the IC50 (in general, the concentration needed to halve the response being measured) on HCV NS5B (BB7 genotype 1b) lay within 500 to 5000 nM.
For `CNC(=O)c1c(-c2ccc(F)cc2)oc2cc(N3CCOCC3)c(OCc3ccc(F)cc3)cc12` [Example 167, 5-(4-Fluoro-benzyloxy)-2-(4-fluoro-phenyl)-6-morpholin-4-yl-benzofuran-3-carboxylic acid methylamide] the same measures were below 1000 nM and 500 to 5000 nM.
For `CNC(=O)c1c(-c2ccc(F)cc2)oc2cc(-c3cnco3)c(OC(C)C)cc12` [Example 168, 2-(4-Fluoro-phenyl)-5-isopropoxy-6-oxazol-5-yl-benzofuran-3-carboxylic acid methylamide] the same measures were below 10000 nM and at most 500 nM.
As to `CNC(=O)c1c(-c2ccc(F)cc2)oc2cc(S(=O)(=O)N3CCC(O)CC3)c(OC(C)C)cc12` [Example 169, 2-(4-Fluoro-phenyl)-6-(4-hydroxy-piperidine-1-sulfonyl)-5-isopropoxy-benzofuran-3-carboxylic acid methylamide], the EC50 in assay [1] (setting [2]) is below 1000 nM. Further, the IC50 at HCV NS5B (BB7 genotype 1b) was at most 500 nM.
In the same order, the values of `CNC(=O)c1c(-c2ccc(F)cc2)oc2cc(N3CCC(F)(F)CC3)c(OC(C)C)cc12` [Example 170, 6-(4,4-Difluoro-piperidin-1-yl)-2-(4-fluoro-phenyl)-5-isopropoxy-benzofuran-3-carboxylic acid methylamide] are below 1000 nM and 5000 to 30000 nM.
As for `CNC(=O)c1c(-c2ccc(F)cc2)oc2cc(N3CCC(F)CC3)c(OC(C)C)cc12` [Example 171, 2-(4-Fluoro-phenyl)-6-(4-fluoro-piperidin-1-yl)-5-isopropoxy-benzofuran-3-carboxylic acid methylamide], the EC50 in assay [1] (setting [2]) was below 1000 nM. In addition, the IC50 at HCV NS5B (BB7 genotype 1b) is 500 to 5000 nM.
Consider `CNC(=O)c1c(-c2ccc(F)cc2)oc2cc(N3CCOCC3)c(OC(F)F)cc12` [Example 172, 5-Difluoromethoxy-2-(4-fluoro-phenyl)-6-morpholin-4-yl-benzofuran-3-carboxylic acid methyalmide], for which, in assay [1] (setting [3]), the EC50 was below 1000 nM. Moreover, at HCV NS5B (BB7, reported as range class), the IC50 is at most 500 nM.
As for `CNC(=O)c1c(-c2ccc(F)cc2)oc2cc(N3CCOCC3)c(OC3CCCC3)cc12` [Example 173, 5-Cyclopentyloxy-2-(4-fluoro-phenyl)-6-morpholin-4-yl-benzofuran-3-carboxylic acid mehtylamide], in assay [1] (setting [3]), the EC50 was below 1000 nM. The IC50 at HCV NS5B (BB7, reported as range class) is at most 500 nM.
In the same order, the values of `CNC(=O)c1c(-c2ccc(F)cc2)oc2cc(NS(C)(=O)=O)c(O)cc12` [Example 174, 2-(4-Fluoro-phenyl)-5-hydroxy-6-methanesulfonylamino-benzofuran-3-carboxylic acid methylamide] are below 30000 nM and 500 to 5000 nM.
For `CNC(=O)c1c(-c2ccc(F)cc2)oc2cc(S(=O)(=O)N3CCSCC3)c(OC(C)C)cc12` [Example 175, 2-(4-Fluoro-phenyl)-5-isopropoxy-6-(thiomorpholine-4-sulfonyl)-benzofuran-3-carboxylic acid methylamide] the same measures were below 1000 nM and at most 500 nM.
As for `CNC(=O)c1c(-c2ccc(F)cc2)oc2cc(S(=O)(=O)N3CCC(O)C3)c(OC(C)C)cc12` (centres unmarked) [Example 176, 2-(4-Fluoro-phenyl)-6-(3-hydroxy-pyrrolidine-1-sulfonyl)-5-isopropoxy-benzofuran-3-carboxylic acid methylamide], in assay [1] (setting [3]), the EC50 is below 1000 nM. In addition, at HCV NS5B (BB7, reported as range class), the IC50 is at most 500 nM.
As for `CNC(=O)c1c(-c2ccc(F)cc2)oc2cc(-c3ccncc3)c(OC(C)C)cc12` [Example 177, 2-(4-Fluoro-phenyl)-5-isopropoxy-6-pyridin-4-yl-benzofuran-3-carboxylic acid methylamide], the EC50 in assay [1] (setting [3]) was below 10000 nM. At HCV NS5B (BB7, reported as range class), the IC50 is at most 500 nM.
For the compound `CNC(=O)c1c(-c2ccc(F)cc2)oc2cc(-c3cccc(S(C)(=O)=O)c3)c(OC(C)C)cc12` [Example 178, 2-(4-Fluoro-phenyl)-5-isopropoxy-6-(3-methanesulfonyl-phenyl)-benzofuran-3-carboxylic acid methylamide], the EC50 in assay [1] (setting [3]) was below 10000 nM. Moreover, the IC50 on HCV NS5B (BB7, reported as range class) was at most 500 nM.
In the same order, the values of `CNC(=O)c1c(-c2ccc(F)cc2)oc2cc(-c3ccc(S(C)(=O)=O)cc3)c(OC(C)C)cc12` [Example 179, 2-(4-Fluoro-phenyl)-5-isopropoxy-6-(4-methanesulfonyl-phenyl)-benzofuran-3-carboxylic acid methylamide] are below 10000 nM and at most 500 nM.
In the case of `CNC(=O)c1c(-c2ccc(F)cc2)oc2cc(N3CCOCC3)c(OCCCl)cc12` [Example 180, 5-(2-Chloro-ethoxy)-2-(4-fluoro-phenyl)-6-morpholin-4-yl-benzofuran-3-carboxylic acid methylamide], the EC50 in assay [1] (setting [3]) was above 30000 nM. Also, the IC50 at HCV NS5B (BB7, reported as range class) is at most 500 nM.
For `CNC(=O)c1c(-c2ccc(F)cc2)oc2cc(OCc3ccccc3)c(OC)cc12` [Example 181, 6-Benzyloxy-2-(4-fluoro-phenyl)-5-methoxy-benzofuran-3-carboxylic acid methylamide], the EC50 in assay [1] (setting [3]) is below 10000 nM. The half-inhibitory concentration (IC50) at HCV NS5B (BB7, reported as range class) was at most 500 nM.
As for `CNC(=O)c1c(-c2ccc(F)cc2)oc2cc(N)c(O)cc12` [Example 182, 6-Ainino-2-(4-fluoro-phenyl)-5-hydroxy-benzofuran-3-carboxylic acid methylamide], in assay [1] (setting [3]), the EC50 was below 30000 nM. Also, the IC50 at HCV NS5B (BB7, reported as range class) fell in the range of 500 to 5000 nM.
In the same order, the values of `CNC(=O)c1c(-c2ccc(F)cc2)oc2cc(OCc3ccccc3)c(OCc3ccccc3)cc12` [Example 183, 5,6-Bis-benzyloxy-2-(4-fluoro-phenyl)-benzofuran-3-carboxylic acid methylamide] are below 10000 nM and above 30000 nM.
For the compound `CNC(=O)c1c(-c2ccc(F)cc2)oc2cc(-c3noc(C(F)(F)F)n3)c(OC(C)C)cc12` [Example 184, 2-(4-Fluoro-phenyl)-5-isopropoxy-6-(5-trifluoromethyl-[1,2,4]oxadiazol-3-yl)-benzofuran-3-carboxylic acid methylamide], the EC50 in assay [1] (setting [3]) is below 30000 nM. At HCV NS5B (BB7, reported as range class), the concentration for half-maximal inhibition (IC50) was 500 to 5000 nM.
Regarding `CNC(=O)c1c(-c2ccc(F)cc2)oc2cc(N3CCN(C(N)=O)CC3)c(OC(C)C)cc12` [Example 185, [2-(4-Fluoro-phenyl)-5-isopropoxy-3-methylcarbamoyl-benzofuran-6-yl]-piperazine-1-carboxylic acid amide], the EC50 in assay [1] (HCV replicon, range of EC50) was below 10000 nM. Further, at HCV NS5B (BB7, reported as range class), the concentration for half-maximal inhibition (IC50) is 5000 to 30000 nM.
On to `CNC(=O)c1c(-c2ccc(F)cc2)oc2cc(N3CCSCC3)c(OC(C)C)cc12` [Example 186, 2-(4-Fluoro-phenyl)-5-isopropoxy-6-thiomorpholin-4-yl-benzofuran-3-carboxylic acid methylamide], for which the EC50 in assay [1] (setting [3]) is below 1000 nM. Also, the IC50 at HCV NS5B (BB7, reported as range class) was at most 500 nM.
Consider `CNC(=O)c1c(-c2ccc(F)cc2)oc2cc(C(=O)O)c(OC(C)C)cc12` [Example 187, 2-(4-Fluoro-phenyl)-5-isopropoxy-3-methylcarbamoyl-benzofuran-6-carboxylic acid], for which the EC50 in assay [1] (setting [3]) is below 10000 nM. In addition, the half-maximal inhibitory concentration (IC50) on HCV NS5B (BB7, reported as range class) fell in the range of 5000 to 30000 nM.
For the compound `CNC(=O)c1c(-c2ccc(F)cc2)oc2cc(N3CC[S+]([O-])CC3)c(OC(C)C)cc12` [Example 188, 2-(4-Fluoro-phenyl)-5-isopropoxy-6-(1-oxo-thiomorpholin-4-yl)-benzofuran-3-carboxylic acid methylamide], the EC50 in assay [1] (setting [3]) is below 10000 nM. Besides, the IC50 at HCV NS5B (BB7, reported as range class) fell in the range of 5000 to 30000 nM.
For `CNC(=O)c1c(-c2ccc(F)cc2)oc2cc(N(CC(=O)O)S(C)(=O)=O)c(OC(C)C)cc12` [Example 189, {[2-(4-Fluoro-phenyl)-5-isopropoxy-3-methylcarbamoyl-benzofuran-6-yl]-methanesulfonyl-amino}-acetic acid] the same measures were below 1000 nM and 500 to 5000 nM.
In the same order, the values of `CNC(=O)c1c(-c2ccc(F)cc2)oc2cc(N(C3CCC3)S(C)(=O)=O)c(OC(C)C)cc12` [Example 190, 6-(Cyclobutyl-methanesulfonyl-amino)-2-(4-fluoro-phenyl)-5-isopropoxy-benzofuran-3-carboxylic acid methylamide] are below 1000 nM and at most 500 nM.
In the same order, the values of `CNC(=O)c1c(-c2ccc(F)cc2)oc2cc(N(CCN3CCOCC3)S(C)(=O)=O)c(OC(C)C)cc12` [Example 191, 2-(4-Fluoro-phenyl)-5-isopropoxy-6-[methanesulfonyl-(2-morpholin-4-yl-ethyl)-amino]-benzofuran-3-carboxylic acid methylamide] are below 1000 nM and at most 500 nM.
`CNC(=O)c1c(-c2ccc(F)cc2)oc2cc(O)c(O)cc12` [Example 192, 2-(4-Fluoro-phenyl)-5,6-dihydroxy-benzofuran-3-carboxylic acid methylamide]: the EC50 in assay [1] (setting [3]) is above 30000 nM. Besides, the IC50 on HCV NS5B (BB7, reported as range class) is 5000 to 30000 nM.
For the compound `CNC(=O)c1c(-c2ccc(F)cc2)oc2cc(N(CCOC)S(C)(=O)=O)c(OC(C)C)cc12` [Example 193, 2-(4-Fluoro-phenyl)-5-isopropoxy-6-[methanesulfonyl-(2-methoxy-ethyl)-amino]-benzofuran-3-carboxylic acid methylamide], in assay [1] (setting [3]), the EC50 was below 1000 nM. For the same compound, the IC50 at HCV NS5B (BB7, reported as range class) is at most 500 nM.
